In PubChem BioAssay (NCI) one finds TGI and GI50 data, which are given here for eleven compounds.

Several values for one entry are separate records, joined by “and”; a condition that tells them apart may be missing. Equal values may be shown once.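 96-well plates; 48 h exposure; 5 concentrations. Endpoints by linear interpolation between flanking doses. Not reached: highest tested concentration assigned. GI50 marks 50% less growth. TGI marks complete inhibition of growth.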

Some test systems named below: HL-60(TB) leukemia; SF-295 CNS; OVCAR-3 ovarian; NCI/ADR-RES ovarian; OVCAR-4 ovarian; SF-539 CNS; HCC-2998 colon; SK-MEL-5 melanoma; MDA-MB-435; RXF 393 renal; SNB-75 CNS; K-562 leukemia; U251 CNS.
Assay in all cases: growth of human tumour cells (NCI), 48 h

`O=[N+]([O-])c1cccc2nc3ccccc3c(NCCNCCO)c12`: the TGI was 0.109 µM in the assay on HL-60(TB) leukemia; 0.0367 µM and 0.133 µM with SF-295 CNS; 0.0268 µM and 0.0556 µM in the assay with OVCAR-3 ovarian; 2.15 µM and 14.9 µM with NCI/ADR-RES ovarian; 0.0162 µM in the assay with OVCAR-4 ovarian; 0.136 µM and 0.0384 µM with SF-539 CNS. In addition, the TGI with HCC-2998 colon was 0.0101 µM; in the assay with SK-MEL-5 melanoma it was 0.00391 µM; with MDA-MB-435, 0.0278 µM and 0.014 µM; with RXF 393 renal, 0.0205 µM; in the assay on SNB-75 CNS it was 0.0565 µM and 0.0397 µM; in the assay on K-562 leukemia it was 0.0448 µM. Further, the TGI in the assay with U251 CNS was 0.0467 µM and 0.0298 µM. In addition, the GI50 is 0.0114 µM with OVCAR-3 ovarian, 0.911 µM with NCI/ADR-RES ovarian, 0.0116 µM with SF-539 CNS and 0.0132 µM in the assay with SNB-75 CNS.
On to `C/C=C/[C@@H]1O[C@H](CC#C[Si](C)(C)C)[C@@]2(C=O)C(C)=CC[C@H](C(C)C)[C@@H]12`, for which the TGI is 19.2 µM in the assay on HL-60(TB) leukemia; 67.3 µM in the assay on SF-295 CNS; 42.4 µM in the assay with OVCAR-3 ovarian; 71 µM in the assay on NCI/ADR-RES ovarian; 51.7 µM with OVCAR-4 ovarian; 49.7 µM in the assay with SF-539 CNS. The TGI is 36.5 µM with HCC-2998 colon; 35.2 µM in the assay with SK-MEL-5 melanoma; 42.5 µM in the assay on MDA-MB-435; 36.8 µM with RXF 393 renal; 54.1 µM in the assay on SNB-75 CNS; more than 100 µM in the assay on K-562 leukemia. Moreover, the TGI in the assay with U251 CNS is 34.4 µM.
On to `CC(C)(N=NC(C)(C)C1=NCCN1)C1=NCCN1`, for which, in the assay on HL-60(TB) leukemia, the GI50 is more than 100 µM. The TGI with HL-60(TB) leukemia, with SF-295 CNS, in the assay with OVCAR-3 ovarian, in the assay on NCI/ADR-RES ovarian, with OVCAR-4 ovarian and in the assay on SF-539 CNS was more than 100 µM each time. In addition, the TGI with HCC-2998 colon, with SK-MEL-5 melanoma, in the assay on MDA-MB-435, with RXF 393 renal, in the assay with SNB-75 CNS and with K-562 leukemia was more than 100 µM each time. In addition, in the assay on U251 CNS, the TGI is more than 100 µM.
Turning to `CCOC(=O)/C=C/[C@H](O[Si](c1ccccc1)(c1ccccc1)c1ccccc1)C(C)(C)C`, the TGI with HL-60(TB) leukemia was more than 100 µM; with SF-295 CNS it was more than 31.6 µM; with OVCAR-3 ovarian it was more than 31.6 µM; with NCI/ADR-RES ovarian, more than 31.6 µM; in the assay on OVCAR-4 ovarian, more than 31.6 µM; with SF-539 CNS, more than 31.6 µM. Besides, the TGI in the assay on HCC-2998 colon, in the assay with SK-MEL-5 melanoma, in the assay with MDA-MB-435, in the assay on RXF 393 renal, in the assay with SNB-75 CNS and in the assay on K-562 leukemia was more than 31.6 µM each time. In addition, the TGI in the assay on U251 CNS is more than 31.6 µM.
Regarding `O=C(NCCCCNCCCNC(=O)C(F)(F)F)C(F)(F)F`, the TGI in the assay with HL-60(TB) leukemia, with SF-295 CNS, in the assay with OVCAR-3 ovarian, in the assay with NCI/ADR-RES ovarian, in the assay with OVCAR-4 ovarian and in the assay on SF-539 CNS was more than 100 µM each time. Further, the TGI in the assay with HCC-2998 colon, in the assay on SK-MEL-5 melanoma, in the assay with MDA-MB-435, with RXF 393 renal, in the assay on SNB-75 CNS and with K-562 leukemia was more than 100 µM each time. The compound also registered a TGI in the assay with U251 CNS of more than 100 µM.
As to `Cn1c2ccccc2n2c3ccccc3c(=S)c(C#N)c12`, the TGI in the assay with HL-60(TB) leukemia, with SF-295 CNS, with OVCAR-3 ovarian, in the assay on NCI/ADR-RES ovarian, in the assay on OVCAR-4 ovarian and with SF-539 CNS was more than 100 µM throughout. For the same compound, the TGI with HCC-2998 colon, in the assay on SK-MEL-5 melanoma, in the assay on MDA-MB-435, with RXF 393 renal, in the assay on SNB-75 CNS and in the assay with K-562 leukemia was more than 100 µM each time. In the assay with U251 CNS, this compound came in with a TGI of more than 100 µM.
`O/N=C1\CC2(N3CCOCC3)CCC1(Cc1ccccc1)CC2`: the TGI is more than 100 µM with HL-60(TB) leukemia; 61.2 µM in the assay on SF-295 CNS; more than 100 µM in the assay with OVCAR-3 ovarian; more than 100 µM in the assay with NCI/ADR-RES ovarian; 84.8 µM in the assay with OVCAR-4 ovarian; 58.3 µM in the assay on SF-539 CNS. Also, the TGI in the assay with HCC-2998 colon was more than 100 µM; in the assay on SK-MEL-5 melanoma, more than 100 µM; in the assay on MDA-MB-435 it was more than 100 µM; in the assay with RXF 393 renal, 42 µM; in the assay on SNB-75 CNS, 34.9 µM; with K-562 leukemia, more than 100 µM. The compound further had a TGI in the assay with U251 CNS of 38.3 µM.
As to `CC1CSc2nc3[nH]c(=S)[nH]c3c(=O)n2C1` (stereo not drawn), the TGI in the assay with HL-60(TB) leukemia, in the assay with SF-295 CNS, in the assay on OVCAR-3 ovarian, in the assay on NCI/ADR-RES ovarian, in the assay on OVCAR-4 ovarian and in the assay with SF-539 CNS was more than 100 µM throughout. The TGI in the assay on HCC-2998 colon, in the assay with SK-MEL-5 melanoma, with MDA-MB-435, in the assay with RXF 393 renal, with SNB-75 CNS and with K-562 leukemia was more than 100 µM in each case. The compound also displayed a TGI in the assay with U251 CNS of more than 100 µM.
For the compound `C=CC1(CBr)CCC(C(C)(C)Br)O1` (stereo not drawn), the TGI in the assay on HL-60(TB) leukemia turned out to be 0.893 µM; in the assay on SF-295 CNS it was 24.8 µM; in the assay on OVCAR-3 ovarian it was 22.6 µM; with NCI/ADR-RES ovarian, 30.7 µM; in the assay with OVCAR-4 ovarian, 28 µM; in the assay on SF-539 CNS it was 30.8 µM. Moreover, the TGI was 30.5 µM with HCC-2998 colon; 23.2 µM in the assay with SK-MEL-5 melanoma; 26.6 µM with MDA-MB-435; 27.3 µM with RXF 393 renal; 20.4 µM in the assay with SNB-75 CNS; more than 25.9 µM in the assay on K-562 leukemia. The same compound came in with a TGI in the assay with U251 CNS of 15.9 µM.
As for `O=C(c1ccco1)N1CCN(C(=O)c2ccco2)C1=S`, the TGI in the assay on HL-60(TB) leukemia is 7.16 µM; with SF-295 CNS, 35.8 µM; with OVCAR-3 ovarian, 11.6 µM; in the assay on NCI/ADR-RES ovarian, more than 79.7 µM; in the assay on OVCAR-4 ovarian, 35.2 µM; in the assay with SF-539 CNS it was 11.2 µM. In addition, the TGI came out at 25.7 µM with HCC-2998 colon; 25.1 µM with SK-MEL-5 melanoma; 14.1 µM in the assay with MDA-MB-435; 12 µM with RXF 393 renal; 26.2 µM in the assay on SNB-75 CNS; 16.5 µM with K-562 leukemia. For the same compound, the TGI in the assay with U251 CNS stood at 24 µM.
Regarding `O=C(/C=C/c1ccc(Cl)c(Cl)c1)CCN1CCN(CCC(=O)/C=C/c2ccc(Cl)c(Cl)c2)CC1`, the TGI is more than 100 µM with HL-60(TB) leukemia; 46.5 µM in the assay with SF-295 CNS; 58.4 µM in the assay on OVCAR-3 ovarian; more than 100 µM in the assay with NCI/ADR-RES ovarian; 46.7 µM with OVCAR-4 ovarian; 30.7 µM with SF-539 CNS. In addition, the TGI in the assay with HCC-2998 colon was 28.9 µM; with SK-MEL-5 melanoma it was 38.2 µM; in the assay with MDA-MB-435, 55.1 µM; in the assay with RXF 393 renal, 38.9 µM; in the assay on SNB-75 CNS, more than 100 µM; with K-562 leukemia, more than 100 µM. Besides, the TGI in the assay with U251 CNS worked out at 49.2 µM.
